Test [1] concerns DSS-induced colitis mice. Put plainly: DSS-induced colitis mice model (Disease Activity Index, colon length). The note with it: 5% DSS in drinking water; 20 μg daily ip, one week. Type of test: in vivo, Balb/c mice. The source says:
FIG. 2: OXA ameliorates the DAI (weight and colitis score) of DSS-induced colitis mice. Mice were orally treated with 5% DSS for 7 days in the presence or in the absence of daily intraperitoneal injection of OxA (0.22 μmoles/kg). Left, determination of gain or loss of weight in the absence of DSS treatment (Control,▴), in the presence of DSS treatment (DSS,▪) and in the presence of DSS associated to OxA treatment (DSS+OxA,●). Right, evaluation of Disease Activity Index (DAI) scored by measuring weight, length of colon, diarrhea and blood presence in the stool in DSS untreated control mice (Control,A), in DSS treated mice (DSS,▪) and in DSS treated mice associated to OxA treatment (DSS+OxA,●).
FIG. 14: Effect of daily ip inoculation of OxA, Suvorexant and Almorexant on the length of colon from DSS—(dextran sulfate sodium) treated mice mimicking the acute ulcerative colitis disease. A. Mice were treated with 5% (w/v) DSS in drinking water and daily injected with 20 μg of OxA (OXA IP), 20 μg of Suvorexant (Suvo) or 20 μg of Almorexant (Almo). Control (wt) or treated DSS mice (DSS) were daily injected with 100 μl PBS. After one week of treatment, mice were sacrificed and the length of colon which represented a good marker of inflammation state, was measured. […] B. quantification of colon length from 5 different DSS-treated mice injected with OxA (DSS+OXA IP), Almorexant (DSS+Almo), Suvorexant (DSS+Suvo) or not injected (WT and DSS). NS, no significant; *, p<0.05; ** p<0.001
Based on these observations, we have investigated the effect of Orexin A (OxA) on acute inflammation in mice treated with Dextran Sulfate Sodium (DSS). OxA was preferentially chosen in these experiments since the presence of two disulphide bridges confers it more stability. DSS induces acute colitis characterized by weight loss, bloody diarrhea, intestinal ulcerations and infiltrations with granulocytes.
DSS-induced colitis mice models: Balb/c mice were orally treated by 5% (w/v) of Dextran Sulfate Sodium (DSS) for 7 days. Orexin treatment was carried out in DSS treated mice by daily intraperitoneal injection of OxA (0.22 μmoles/kg) for 7 days. Weight and colitis symptoms (diarrhea, blood in the stool . . . ) for each mouse was daily measured. After 7 days of treatment, animals were sacrificed and colons were resected to further analyses (size, histological aspect, cytokine assays).
The inventors have thus investigated the effect of daily intraperitoneal inoculation of OxA, Suvorexant and Almorexant in the experimental context of EXAMPLE 1 (colitis). In particular they investigated the effects of the drugs on the length of colon from DSS-(dextran sulfate sodium) treated mice mimicking the acute ulcerative colitis disease. […]

Test [2] has as its system colon adenocarcinoma HT-29 cells. The experiment in a line: Cells growth determination, HT-29 cells. The test is classed as cell-based. The note with it: 48 hr; OxA 0.1 μM, SB408124 increasing concentrations. As to the method: (§1) FIG. 12: Determination of the inhibition of cellular growth of HEK-OX1R cells and colon adenocarcinoma cells (HT-29) induced by 0.1 μM of OxA or various concentrations of SB408124 antagonist. HEK-OX1R cells (black column) and HT-29 cells (white column) were incubated with 0.1 μM of OxA and indicated increasing concentration of SB408124, and cells were counted after 48 hr incubation. Results are expressed as the percentage of total viable cells.
(§2) Cells growth determination and apoptosis assay: HEK-OX1R cells or colon adenocarcinoma HT-29 cells were seeded, grown and maintained at 37° C. in a humidified 5% CO2/air incubator. After 24 hr culture, cells were treated with or without Orexin-A peptide or SB408124 antagonist, previously dissolved in DMSO, to be tested at the concentration indicated in the figure legends. After 48 hr of treatment, adherent cells were harvested by Trip1E (Life Technologies, Saint Aubin, France) and manually counted. Apoptosis was determined using the Guava PCA system and the Guava nexin kit.

In test [3] the target is T1, OX1R (Homo sapiens, UniProt O43613, A280G).
T1 construct: HEK cells expressing recombinant native OX1R (HEK-OX1R); expressed in transfected cells; host or cells: HEK cells (HEK-OX1R)
T1 sequence (O43613 1-425 A280G): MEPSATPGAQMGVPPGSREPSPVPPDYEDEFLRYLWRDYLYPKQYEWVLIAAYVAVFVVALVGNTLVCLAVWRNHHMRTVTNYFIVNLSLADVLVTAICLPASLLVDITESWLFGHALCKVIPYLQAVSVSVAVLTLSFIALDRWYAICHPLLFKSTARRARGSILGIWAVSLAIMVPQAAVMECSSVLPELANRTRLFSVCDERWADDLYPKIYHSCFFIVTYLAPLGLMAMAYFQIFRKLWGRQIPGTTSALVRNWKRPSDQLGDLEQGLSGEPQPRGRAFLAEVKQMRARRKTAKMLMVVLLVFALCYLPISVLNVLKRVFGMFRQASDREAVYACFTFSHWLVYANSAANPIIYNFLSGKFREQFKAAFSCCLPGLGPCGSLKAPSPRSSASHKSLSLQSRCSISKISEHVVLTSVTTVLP
The experiment in a line: Ca2+ mobilization assay in HEK-OX1R cells (FluoForte). The test is classed as cell-based. The settings on record: pre-incubation 1 μM for 1 h, then 1 μM OxA.

The test system of test [4] is HEK-OX1R cells. Put plainly: Cells growth determination, HEK-OX1R cells. The settings on record: 48 hr; OxA 0.1 μM, SB408124 increasing concentrations. Type of test: cell-based. As to the method: as §1, §2
Test [5] concerns colon adenocarcinoma HT-29 cells. The experiment in a line: Apoptosis assay (annexin V-PE binding, Guava nexin kit) in HT-29 cells. Type of test: cell-based. The note with it: 48 h; orexin-A 1 μM, SB408124 various concentrations. As to the method: FIG. 13: Effect of orexin-A and SB408124 antagonist on apoptosis in OX1R expressing colon adenocarcinoma cells, HT-29. HT-29 cells were challenged with 1 μM orexin-A or various concentration of SB408124 for 48 h. Apoptosis was measured by determination of annexin V-PE binding, and results are expressed as the percentage of apoptotic cells. Results are means±SE of three experiments. ***P<0.001.
as §2

For the compound `CNC(=O)[C@@H](c1ccccc1)N1CCc2cc(OC)c(OC)cc2[C@@H]1CCc1ccc(C(F)(F)F)cc1` [Almorexant], the “Protection from DSS induced acute ulcerative colitis (length of colon)” value in test [1] is on record as “protect mice from DSS induced acute ulcerative colitis disease”.

Turning to `Cc1cc(NC(=O)Nc2ccc(N(C)C)cc2)c2cc(F)cc(F)c2n1` [SB408124], in test [2], the “Inhibition of cellular growth of HT-29 cells” value was “strong inhibition in a dose-dependent manner”. Besides, in test [3], the “Effect on OxA-induced Ca2+ mobilization in HEK-OX1R cells” value is recorded as “totally abolished”. Moreover, the “Inhibition of cellular growth of HEK-OX1R cells” value in test [4] is on record as “strong inhibition in a dose-dependent manner”. For the same compound, the “Apoptosis in HT-29 cells” value in test [5] was “able to induce in a dose-dependent manner cell apoptosis”.

For the compound `Cc1ccc(-n2nccn2)c(C(=O)N2CCN(c3nc4cc(Cl)ccc4o3)CC[C@H]2C)c1` [Suvorexant], in test [1], the “Protection from DSS induced acute ulcerative colitis (length of colon)” value was “protect mice from DSS induced acute ulcerative colitis disease”.

Values taken from US20190151304A1, “METHODS AND PHARMACEUTICAL COMPOSITIONS FOR THE TREATMENT OF AUTOIMMUNE INFLAMMATORY” (INSERM (INSTITUT NATIONAL DE LA SANTÉ ET DE LA RECHERCJAE …, priority 2016, published 2019).
